Test results as given in EPA's ToxRefDB 2.

Assays:
rat [1] = conditions: Neurotoxicity screening battery, sprague dawley, Injection, Subcutaneous, dose end: 22 week, group: cannot be grouped
rat [2] = conditions: Peri- and post-natal toxicity study (Segment III); sprague dawley; Injection; Subcutaneous; dose end: 22 PND; group: parental; systemic / in life observation / body weight / body weight
rat [3] = conditions: Prenatal developmental toxicity study; sprague dawley; Injection; Subcutaneous; dose end: 20 GD; group: maternal; reproductive / reproductive performance / premature delivery / premature delivery + systemic / in life observation / body weight / body …
dog = conditions: Sub-acute repeat dose toxicity; beagle; Oral; Gavage/Intubation; dose end: 4 week; group: systemic; systemic / clinical chemistry / alanine aminotransferase (alt/sgpt) / alanine aminotransferase (alt/sgpt) + systemic / clinical chemistry / …
rat [4] = conditions: Sub-acute repeat dose toxicity, sprague dawley, Oral, Gavage/Intubation, dose end: 4 week, group: systemic
rat [5] = conditions: Carcinogenicity, fischer, Oral, Feed, dose end: 78 week, group: systemic
mouse [6] = conditions: Carcinogenicity, b6c3f1, Oral, Feed, dose end: 80 week, group: systemic
rat [7] = conditions: Subchronic oral toxicity in rodents, fischer, Feed, dose end: 26 week, group: systemic
mouse [8] = conditions: Carcinogenicity, b6c3f1, Oral, Feed, dose end: 100 week, group: systemic
rat [9] = conditions: Carcinogenicity, fischer, Oral, Feed, dose end: 107 week, group: systemic
[10] = reproductive / reproductive performance / estrous cycle / periodicity + systemic / clinical chemistry / corticosterone / corticosterone + …
[11] = systemic / clinical chemistry / corticosterone / corticosterone + systemic / in life observation / body weight / body weight gain
[12] = systemic / clinical chemistry / alanine aminotransferase (alt/sgpt) / alanine aminotransferase (alt/sgpt) + systemic / clinical chemistry / …
[13] = systemic / organ weight / liver / absolute + systemic / organ weight / liver / relative to body weight + systemic / organ weight / liver / …
[14] = systemic / in life observation / body weight / body weight + systemic / in life observation / mortality / mortality + systemic / pathology …
[15] = systemic / pathology microscopic / liver / hepatocellular carcinoma + systemic / pathology microscopic / liver / neoplastic nodule + …
[16] = systemic / pathology microscopic / blood / lymphoma malignant + systemic / pathology microscopic / liver / hepatocellular carcinoma
[17] = systemic / pathology microscopic / liver / hepatocellular carcinoma
[18] = systemic / clinical chemistry / glucose / glucose + systemic / clinical chemistry / potassium / potassium + systemic / clinical chemistry / …
[19] = systemic / hematology / hematocrit (hct) / hematocrit (hct) + systemic / hematology / leukocyte (wbc) count differential / leukocyte (wbc…
[20] = systemic / pathology gross / full gross necropsy / lymphoma malignant + systemic / in life observation / body weight / body weight gain
[21] = systemic / pathology gross / full gross necropsy / lymphoma malignant + systemic / in life observation / body weight / body weight gain + …
[22] = systemic / in life observation / body weight / body weight + systemic / pathology microscopic / mammary gland / dilatation + systemic / …
[23] = systemic / pathology microscopic / mammary gland / hyperplasia

## C[C@]12C[C@H](O)[C@H]3[C@@H](CCC4=CC(=O)CC[C@@]43C)[C@@H]1CC[C@@H]2C(=O)CO [Corticosterone]
Rat [1]; [10]
  LOAEL: > 40 mg/kg/day
  NOAEL: ≥ 40 mg/kg/day
Rat [1]; [11]
  LEL: 10 mg/kg/day
  NEL: < 10 mg/kg/day
Rat [2]
  LEL: 40 mg/kg/day
  LOAEL: > 40 mg/kg/day
  NEL: < 40 mg/kg/day
  NOAEL: ≥ 40 mg/kg/day
Rat [3]
  LEL: 40 mg/kg/day
  LOAEL: > 40 mg/kg/day
  NEL: < 40 mg/kg/day
  NOAEL: ≥ 40 mg/kg/day

## O=C(NC(=O)c1cc(F)c(F)cc1Cl)Nc1cc(F)ccc1N1CCC(C(=O)O)CC1 [AVE2865]
dog
  LEL: 1 mg/kg/day
  LOAEL: > 10 mg/kg/day
  NEL: < 1 mg/kg/day
  NOAEL: ≥ 10 mg/kg/day
Rat [4]; [12]
  LOAEL: 35 mg/kg/day
  NOAEL: 5 mg/kg/day
Rat [4]; [13]
  LEL: 5 mg/kg/day
  NEL: < 5 mg/kg/day

## Nc1ccc2c(c1)C(=O)c1ccccc1C2=O [2-Aminoanthraquinone]
Rat [5]; [14]
  LEL: 100 mg/kg/day
  NEL: < 100 mg/kg/day
Rat [5]; [15]
  LOAEL: > 345 mg/kg/day
  NOAEL: ≥ 345 mg/kg/day
Mouse [6]; [16]
  LOAEL: > 1500 mg/kg/day
  NOAEL: ≥ 1500 mg/kg/day
Mouse [6]; [17]
  LEL: 750 mg/kg/day
  NEL: < 750 mg/kg/day
Rat [7]; [18]
  LEL: 500 mg/kg/day
  NEL: < 500 mg/kg/day
Rat [7]; [19]
  LOAEL: > 1000 mg/kg/day
  NOAEL: ≥ 1000 mg/kg/day

## [Ca+2].[N-]=C=[N-] [Calcium cyanamide]
Mouse [8]; [20]
  LEL: 75 mg/kg/day
  NEL: < 75 mg/kg/day
Mouse [8]; [21]
  LOAEL: > 300 mg/kg/day
  NOAEL: ≥ 300 mg/kg/day
Rat [9]; [22]
  LOAEL: > 10 mg/kg/day
  NOAEL: ≥ 10 mg/kg/day
Rat [9]; [23]
  LEL: 5 mg/kg/day
  NEL: < 5 mg/kg/day
